Data as given in patent US20250339409A1, “USES OF PAN BET INHIBITORS” (VYNE THERAPEUTICS INC., priority 2021, published 2025).
Several values for one entry are separate records, joined by “and”; a condition that tells them apart may be missing. Equal values may be shown once.

Key:
[1] = test system: bleomycin induced pulmonary fibrosis; test: Bleomycin induced pulmonary fibrosis in mice, nebulized treatment: body weight, weight of whole lung, survival; type: in vivo; conditions: for Predicted (LS) mean diff., % Change Body Weight, Group 2 Bleo/Veh vs. BETi1 group: Two Way ANOVA
Method: Bleomycin, a […], which acts inter alia by induction of DNA strand breaks.
The Bleomycin induced pulmonary fibrosis in a murine model is used to assess anti-fibrotic and/or anti-inflammatory properties of BETi1 formulations at three concentrations. Fifty C57BL/6 male mice aged 6 to 7 weeks and weighing between 25-30 grams are randomized into five treatment groups (10 mice each): (a) bleomycin induced mice treated with BETi1 at three concentrations (0.06 mg/mL, 0.6 mg/mL and 3 mg/mL); (b) bleomycin induced mice treated with vehicle (control for active) and (c) uninduced mice treated with vehicle (sham) (control for disease).
To generate the morphological and functional aspects of PF, 50 uL bleomycin sulfate in saline per mouse is intranasally dosed on Day 0 (other than for group 1 sham receiving saline). The bleomycin IU conversion to enzyme units (U) is approximately 2 U/mg. For delivery of 4 U/kg in 50 μL, a solution of 2 U/ml (for 25 g mouse) is prepared in 0.9% NaCl.
5 ml of BETi1 solutions at 3 doses, or vehicle and bleomycin concomitantly are delivered once daily for 21 days with a nebulizer based aerosol delivery system (eFlow® rapid Nebuliser System) by inhalation for a period which allows the solutions to be nebulized and up to 2 hours per day. A sham group receives vehicle only. Body weights are recorded on days 1, 7, 14, and 21. Mortality and clinical observations are recorded daily.
On day 21, mice are euthanized by cervical dislocation and the whole lung is dissected and weighed. The chest is wet with alcohol and large scissors are used to open the ribcage. The lungs are removed with fine scissors and forceps, rinsed with PBS and patted dry on gauze.
Investigation of the anti-fibrotic properties of BETi1 composition against TGF-β mediated fibrosis was undertaken in a bleomycin induced murine model mimicking IPF in accordance with the protocol set out in Experimental Method R.

[2] = Chemical and physical stability of formulations (HPLC, polarized light microscopy); type: physicochemical; conditions: 3 m at 25° C.
Method: For Polarized Light Microscopy evaluation, the samples of the formulations in petrolatum are heated to 55° C. to melt most of the petrolatum crystals and make visible crystals of API. The API crystals are measured and photomicrographs are taken.
The microscopy samples of API are prepared by dispersing some (unmeasured amount) of API powder in a drop of mineral oil. The dispersion is done by a spatula. The concentration of API in mineral oil is unknown.
The stability of prepared formulations was assessed by HPLC testing of samples of two formulations, prepared with API from two different sources. […] The area % of the main peak in the samples after temperature exposure was compared to area % of the main peak in initial samples of the same batches and in the corresponding APIs. The samples exposed to stability challenge were also evaluated for presence of new peaks, not observed in API or in initial samples.

[3] = Group 5 Bleo/BETi1 3 mg/mL, group mean
[4] = Group 5 Bleo/BETi1 3 mg/mL, individual animals

In the case of Cn1cc(-c2cccc(O)c2Oc2ccccc2)c2cc[nH]c2c1=O [BETi1], the “Weight of Whole lung, Mean” value ([1]; Group 5 Bleo/BETi1 3 mg/mL) is reported as 0.28 grams, the “Weight of Whole lung, individual animals” value ([1]; Group 5 Bleo/BETi1 3 mg/mL) is reported as 0.31 grams (2×) and 0.33 grams (2×) and 0.30 grams (2×) and 0.23 grams and 0.27 grams and 0.29 grams and 0.34 grams and 0.28 grams and 0.21 grams and 0.22 grams and the “Probability of Survival” value ([1]; Group 5 Bleo/BETi1 3 mg/mL, Day Elapsed 0) is reported as 100%. For the same compound, the “Probability of Survival” value ([1]; Group 5 Bleo/BETi1 3 mg/mL, Day Elapsed 12) was 88.24%, the “Probability of Survival” value ([1]; Group 5 Bleo/BETi1 3 mg/mL, Day Elapsed 19) was 76.5% and the “Probability of Survival” value ([1]; Group 5 Bleo/BETi1 3 mg/mL, Day Elapsed 20) was 76.5%. For the same compound, the “Mean Diff., Weight of Whole lung, Group 2 Bleo/Veh vs. BETi1 group” value ([1]; Group 5 Bleo/BETi1 3 mg/mL, One Way ANOVA, Dunnett's) was 0.001901, the “% change in Body Weight Week 1 Compared to Baseline, mean” value [1, 3] was −19.36% and the “% change in Body Weight week 2 Compared to Baseline, mean” value [1, 3] was −20.64%. The “% change in Body Weight week 3 Compared to Baseline, Mean” value [1, 3] was −16.74%, the “% change in Body Weight Week 1 Compared to Baseline” value [1, 4] was −26.87% and −23.22% and −36.71% and −15.25% and −13.81% and −12.78% and −17.30% and −34.80% and −28.32% and −27.55% and −24.87% and −34.38% and −26.99% and −11.63% and −10.16% and −15.64% and −21.86% and the “% change in Body Weight week 2 Compared to Baseline” value [1, 4] was −11.45% and −36.97% and −40.10% and −20.18% and 1.43% and −7.05% and −22.16% and −38.24% and −34.07% and −20.81% and −42.92% and −8.37% and −1.07% and −7.11% and −20.47%. The “% change in Body Weight week 3 Compared to Baseline” value [1, 4] was −5.73% and −37.44% and −21.52% and 1.90% and −7.05% and −24.32% and −46.08% and −37.17% and −17.26% and −3.26% and 2.67% and −4.27% and −18.14%, the “Mean 2 (group mean), % Change Body Weight” value ([1]; Week 1, Group 3 Bleo/BETi1 0.06 mg/mL) was −25.27% and the “Mean Diff., % Change Body Weight, Group 2 Bleo/Veh vs. BETi1 group” value ([1]; Week 1, Group 3 Bleo/BETi1 0.06 mg/mL, One Way ANOVA, Dunnett's) was 3.162%. For the same compound, the “Predicted (LS) mean diff., % Change Body Weight, Group 2 Bleo/Veh vs. BETi1 group” value ([1]; Week 1, Group 3 Bleo/BETi1 0.06 mg/mL, Dunnett's) was −0.2812%, the “Mean 2 (group mean), % Change Body Weight” value ([1]; Week 1, Group 4 Bleo/BETi1 0.6 mg/mL) was −20.16% and the “Mean Diff., % Change Body Weight, Group 2 Bleo/Veh vs. BETi1 group” value ([1]; Week 1, Group 4 Bleo/BETi1 0.6 mg/mL, One Way ANOVA, Dunnett's) was −1.950%. For the same compound, the “Predicted (LS) mean diff., % Change Body Weight, Group 2 Bleo/Veh vs. BETi1 group” value ([1]; Week 1, Group 4 Bleo/BETi1 0.6 mg/mL, Dunnett's) was 0.1375%, the “Mean 2 (group mean), % Change Body Weight” value ([1]; Week 1, Group 5 Bleo/BETi1 3 mg/mL) was −22.48% and the “Mean Diff., % Change Body Weight, Group 2 Bleo/Veh vs. BETi1 group” value ([1]; Week 1, Group 5 Bleo/BETi1 3 mg/mL, One Way ANOVA, Dunnett's) was 0.3723%. For the same compound, the “Predicted (LS) mean diff., % Change Body Weight, Group 2 Bleo/Veh vs. BETi1 group” value ([1]; Week 1, Group 5 Bleo/BETi1 3 mg/mL, Dunnett's) was −0.2048%, the “Mean 2 (group mean), % Change Body Weight” value ([1]; Week 2, Group 3 Bleo/BETi1 0.06 mg/mL) was −19.98% and the “Mean Diff., % Change Body Weight, Group 2 Bleo/Veh vs. BETi1 group” value ([1]; Week 2, Group 3 Bleo/BETi1 0.06 mg/mL, One Way ANOVA, Dunnett's) was 1.135%. For the same compound, the “Predicted (LS) mean diff., % Change Body Weight, Group 2 Bleo/Veh vs. BETi1 group” value ([1]; Week 2, Group 3 Bleo/BETi1 0.06 mg/mL, Dunnett's) was 0.3375%, the “Mean 2 (group mean), % Change Body Weight” value ([1]; Week 2, Group 4 Bleo/BETi1 0.6 mg/mL) was −17.12% and the “Mean Diff., % Change Body Weight, Group 2 Bleo/Veh vs. BETi1 group” value ([1]; Week 2, Group 4 Bleo/BETi1 0.6 mg/mL, One Way ANOVA, Dunnett's) was −1.732%. The “Predicted (LS) mean diff., % Change Body Weight, Group 2 Bleo/Veh vs. BETi1 group” value ([1]; Week 2, Group 4 Bleo/BETi1 0.6 mg/mL, Dunnett's) was −0.3438%, the “Mean 2 (group mean), % Change Body Weight” value ([1]; Week 2, Group 5 Bleo/BETi1 3 mg/mL) was −20.64% and the “Mean Diff., % Change Body Weight, Group 2 Bleo/Veh vs. BETi1 group” value ([1]; Week 2, Group 5 Bleo/BETi1 3 mg/mL, One Way ANOVA, Dunnett's) was 1.788%. The “Predicted (LS) mean diff., % Change Body Weight, Group 2 Bleo/Veh vs. BETi1 group” value ([1]; Week 2, Group 5 Bleo/BETi1 3 mg/mL, Dunnett's) was −0.05257%, the “Mean 2 (group mean), % Change Body Weight” value ([1]; Week 3, Group 3 Bleo/BETi1 0.06 mg/mL) was −8.830% and the “Mean Diff., % Change Body Weight, Group 2 Bleo/Veh vs. BETi1 group” value ([1]; Week 3, Group 3 Bleo/BETi1 0.06 mg/mL, One Way ANOVA, Dunnett's) was −4.313%. For the same compound, the “Predicted (LS) mean diff., % Change Body Weight, Group 2 Bleo/Veh vs. BETi1 group” value ([1]; Week 3, Group 3 Bleo/BETi1 0.06 mg/mL, Dunnett's) was −2.409%, the “Mean 2 (group mean), % Change Body Weight” value ([1]; Week 3, Group 4 Bleo/BETi1 0.6 mg/mL) was −13.58% and the “Mean Diff., % Change Body Weight, Group 2 Bleo/Veh vs. BETi1 group” value ([1]; Week 3, Group 4 Bleo/BETi1 0.6 mg/mL, One Way ANOVA, Dunnett's) was 0.4395%. For the same compound, the “Predicted (LS) mean diff., % Change Body Weight, Group 2 Bleo/Veh vs. BETi1 group” value ([1]; Week 3, Group 4 Bleo/BETi1 0.6 mg/mL, Dunnett's) was −0.1629%, the “Mean 2 (group mean), % Change Body Weight” value ([1]; Week 3, Group 5 Bleo/BETi1 3 mg/mL) was −16.74% and the “Mean Diff., % Change Body Weight, Group 2 Bleo/Veh vs. BETi1 group” value ([1]; Week 3, Group 5 Bleo/BETi1 3 mg/mL, One Way ANOVA, Dunnett's) was 3.600%. The “Predicted (LS) mean diff., % Change Body Weight, Group 2 Bleo/Veh vs. BETi1 group” value ([1]; Week 3, Group 5 Bleo/BETi1 3 mg/mL, Dunnett's) was 0.6601% and the “degradation in compositions comprising suspended BETi1” value [2] was “no degradation of BETi1 being observed”.
